Laboratory results as given in patent US4001230A, “3-(5-Nitroimidazol-2-yl)pyrazolo[3,4-d]pyrimidine compounds” (Eli Lilly and Company, priority 1975, dated 1977).
Converted amounts (≈) assume the structure as drawn. Read-outs that look alike come from different tables or passages of the source.

What was measured:
P. multocida = assay: In vivo activity in drinking water for treatment of Pasteurella multocida infection in mice (LD50, protective index); set-up: species or system white female mice; details: observed 7 days
Experimental: A comparison of the in vivo activity of a novel compound of this invention and nitrofurazolidone (Furacin) when administered in drinking water for the treatment of Pasteurella multocida infection in mice was conducted. The novel compound of this invention used in this study was 4,5-di-hydro-4-imino-1-methyl-3-(1-methyl-5-nitroimidazol-2-yl)-5-(4-pyridylmethyl)-1H-pyrazolo[3,4-d]pyrimidine diphosphate, identified by its operating example No. 8k. The test was conducted in the following manner.
Twenty white female mice, each weighing about 15-20 g., were divided into four groups of five mice each, and the groups were each placed on water medication containing:
a. Compound 8k, 0.5 g./gal.
b. Compound 8k, 2.0 g./gal.
c. Nitrofurazolidone, 0.5 g./gal.
d. Nitrofurazolidone, 2.0 g./gal.
The groups receiving each treatment were challenged with 0.1 ml. each of a 10^-^4, 10^-^5, 10^-^6, or 10^-^7 dilution of a 16 to 20-hour broth culture of P. multocida. Untreated groups of mice were challenged with log10 dilutions of the same broth culture using 0.1 ml. of 10^-^4 through 10^-^9 dilutions. […] By subtracting the LD50 of each of the treated groups from that of the control group of mice, there was obtained a figure called the protective index.
In the table, column 1 sets forth the treatment; column 2, the LD50; and column 3 the log10 protection obtained.

Salmonella typhimurium = assay: In vivo activity against Salmonella typhimurium in chicks, subcutaneous
Pseudomonas sp. = assay: In vitro activity against fish bacterial pathogen, standard tube dilution test (MIC); type: cell-based; details: tryptose broth, overnight, about 37° C., read-out: minimum inhibitory concentration (MIC)
Experimental: (§1) The in vitro activity of certain of the novel compounds of this invention against two fish bacterial pathogens was determined using tryptose broth and the standard tube dilution test system. Doubling dilutions ranging from 100.0 to 0.78 mcg./ml. of each of the test compounds were prepared in 5 ml. amounts of tryptose broth. Each tube in the series was then inoculated with one drop from a 24-hour broth culture of either Pseudomonas sp. or a strain of Aeromonas liquefaciens. The tubes were incubated overnight at about 37° C., and the minimum inhibitory concentration (MIC) determined and recorded.
(§2) Column 1 lists the test compounds identified by their operating example number; column 2 lists the MIC for Pseudomonas sp.; and column 3 lists the MIC for Aeromonas liquefaciens.

Aeromonas liquefaciens = assay: as above; type: cell-based; details: Aeromonas hydrophila; Aeromonas liquefaciens; tryptose broth, overnight, about 37° C.; read-out: minimum inhibitory concentration (MIC)
Experimental: as §1, §2

Pasteurella multocida = assay: Efficacy against Pasteurella multocida infections in mice when administered by injection; type: in vivo, Female Swiss mice; details: for responders at 5 mg/kg / responders at 2.5 mg/kg / responders at 1.25 mg/kg: Pasteurella multocida, ip, read-out: Survival ratio (mice surviving / mice tested) (converted); for responders at 2.5 mg/kg: 2.5 mg./kg. intraperitoneal; for responders at 1.25 mg/kg: 1.25 mg./kg. intraperitoneal
Experimental: The efficacy of the novel compounds against Pasteurella multocida infections in mice when administered by injection was studied.
Female Swiss mice weighing from 15 to about 20 g. were used. The test compound, 5.0 mg., was weighed out and dissolved in 0.5 ml. of dimethyl sulfoxide, and this solution was added to 9.5 ml. of sodium carboxymethylcellulose suspension. Groups of five mice each were injected intraperitoneally with 0.1 ml. each of the above-prepared test composition. This preparation gave a test rate of 2.5 mg. per kilo of body weight of mouse. The compounds were tested at 1.25, 2.5, or 5.0 per kilogram of body weight of mouse, and the test preparations for the rates of 1.25 and 5.0 mg./kg. were prepared in a similar manner. Immediately after receiving the test compound, the mice were challenged using log10 dilutions of 10^-^4, 10^-^5 and 10^-^6,of a 16 to 20-hour tryptose broth culture of Pasteurella multocida at 0.1 ml. per mouse subcutaneously. Similar groups of nontreated control mice were also challenged, the challenge being administered subcutaneously. The groups of mice were observed daily for mortality and the total mortality in treated groups compared with that which occurred in the nonmedicated control groups. Each test compound is identified by the number of the example describing its preparation.
In the chart, column 1 lists the test compound; column 2, the dosage of test compound in mg./kg. of mouse body weight; column 3, the dilution of the challenge organism; and column 4, the ratio of the number of mice surviving the test at each dosage and challenge dilution to the number of mice tested at each dosage and challenge dilution, called the survival ratio.

Trichomonas vaginalis [1] = assay: In vivo activity against Trichomonas vaginalis
Trichomonas vaginalis [2] = assay: In vitro activity against Trichomonas vaginalis; type: cell-based
Treponema hyodysenteriae = assay: In vitro activity against Treponema hyodysenteriae on blood agar plates (MIC); type: cell-based
Experimental: A number of representative compounds, namely, 5b, 8, and 15b, were tested for their in vitro activity against Treponema hyodysenteriae. The treponema were propagated on blood agar plates. Each plate which was prepared contained 20 ml. of trypticase soy agar (Baltimore Biological Laboratory [BBL]) with 5.0 g./l. of yeast extract (Difco) and 5 percent sterile defibrinated horse blood. The plates were sterile plastic 15 × 100 mm. petri plates. Incubation was carried out at 37° C. for 4 days under anaerobic conditions using the BBL Gas Pak system.
The concentrations of test compounds in this initial test were prepared in dilutions ranging from 2000 mcg./ml. to 7.8 mcg./ml. The test procedure was carried out in the following manner. Five ml. of a twenty-fold concentration in tryptose broth (Difco) of each filter-sterilized test compound dilution was mixed in a series of flasks containing 90 ml. of melted trypticase soy agar with yeast extract. Five ml. of horse blood was then added per flask. The contents of these flasks were then used to prepare a series of blood agar plates in doubling decreasing dilutions ranging from 100 mcg./ml. to 0.39 mcg./ml.
The treponema for inoculation of these plates were obtained by adding 3.0 ml. of sterile tryptose broth to the surface of a plate on which the treponema had been propagated. A sterile cotton-tipped swab was used to loosen the treponema from the agar. […] The inoculum was spread so that it covered the surface of each plate, a bent sterile plastic pipette being used for this purpose for each plate. The plates were incubated at about 36° C. for about 4 days and then examined for growth of the treponema. The minimum inhibitory concentration (MIC) of each test compound was the concentration that prevented growth of treponema.

[3] = 5.0 mg./kg. intraperitoneal, challenge dilution 10^-^4 subcutaneous
[4] = 5.0 mg./kg. intraperitoneal, challenge dilution 10^-^5 subcutaneous
[5] = 5.0 mg./kg. intraperitoneal, challenge dilution 10^-^6 subcutaneous
[6] = challenge dilution 10^-^4 subcutaneous
[7] = challenge dilution 10^-^5 subcutaneous
[8] = challenge dilution 10^-^6 subcutaneous

Row | Molecule | Protective Index (log10 protection) (P. multocida; 0.5 g./gal. in drinking water) | Protective Index (log10 protection) (P. multocida; 2.0 g./gal. in drinking water) | in vivo activity against Salmonella typhimurium in chicks (Salmonella typhimurium) | MIC (Pseudomonas sp.) | MIC (Aeromonas liquefaciens) | responders at 5 mg/kg (Pasteurella multocida; [3]) | responders at 5 mg/kg (Pasteurella multocida; [4]) | responders at 5 mg/kg (Pasteurella multocida; [5]) | in vivo activity against Trichomonas vaginalis (Trichomonas vaginalis [1]) | in vitro activity against Trichomonas vaginalis (Trichomonas vaginalis [2]) | responders at 2.5 mg/kg (Pasteurella multocida; [6]) | responders at 2.5 mg/kg (Pasteurella multocida; [7]) | responders at 2.5 mg/kg (Pasteurella multocida; [8]) | MIC (Treponema hyodysenteriae; Brachyspira hyodysenteriae, 96 h, blood agar plates, about 36° C., about 4 days, read-out: minimum inhibitory concentration (MIC)) | inhibition of growth of the treponema (Treponema hyodysenteriae; doubling dilutions 100 mcg./ml. to 0.39 mcg./ml.) | Survival ratio (mice surviving / mice tested) (Pasteurella multocida; [3]) | responders at 1.25 mg/kg (Pasteurella multocida; [6]) | responders at 1.25 mg/kg (Pasteurella multocida; [7]) | responders at 1.25 mg/kg (Pasteurella multocida; [8])
1 | 5-[2-(Diethylamino)ethyl]-4,5-dihydro-4-imino-1-methyl-3-(1-methyl-5-nitroimidazol-2-yl)-1H-pyrazolo[3,4-d]-pyrimidine disulfate [Example 8i] | > 2.5 | > 2.5 | – | – | – | – | – | – | – | – | – | – | – | – | – | – | – | – | –
2 | CCc1nc2c(c(-c3ncc([N+](=O)[O-])n3C)nn2C)c(=O)[nH]1 [Example 2, 6-Ethyl-1,5-dihydro-1-methyl-3-(1-methyl-5-nitroimidazol-2-yl)-4H-pyrazolo[3,4-d]pyrimidin-4-one] | – | – | active in vivo against Salmonella typhimurium in chicks | 50 µg/mL (≈ 165 µM) | 50 µg/mL (≈ 165 µM) | 20% | 33.3% | 33.3% | – | – | – | – | – | – | – | – | – | – | –
3 | Cn1nc(-c2ncc([N+](=O)[O-])n2C)c2c1NC(CCl)(OC(=O)CCl)NC2=O (centres unmarked) [Example 3, 6-(Chloromethyl)-6,7-dihydro-6-hydroxy-1-methyl-3-(1-methyl-5-nitroimidazol-2-yl)-1H-pyrazolo[3,4-d]pyrimidin-4-(5H)-one, chloroacetate ester] | – | – | – | – | – | 5% | 20% | 25% | active both in vitro and in vivo against Trichomonas vaginalis | active both in vitro and in vivo against Trichomonas vaginalis | 30% | 10% | 20% | – | – | – | – | – | –
4 | CN(C)CCn1cnc2c(c(-c3ncc([N+](=O)[O-])n3C)nn2C)c1=N [Example 8, 5-[2-(Dimethylamino)ethyl]4,5-dihydro-4-imino-1-methyl-3-(1-methyl-5-nitroimidazol-2-yl)-1H-pyrazolo[3,4-d]pyrimidine] | – | – | active in vivo against Salmonella typhimurium in chicks | 1.56 µg/mL (≈ 4.52 µM) | 12.5 µg/mL (≈ 36.2 µM) | – | 100% | 100% | active both in vitro and in vivo against Trichomonas vaginalis | active both in vitro and in vivo against Trichomonas vaginalis | 40% | 60% | 100% | ≤ 1.56 µg/mL | inhibited growth of the treponema at each of the levels tested | 10/10 | 20% | 40% | 60%
5 | CN(C)CCCn1cnc2c(c(-c3ncc([N+](=O)[O-])n3C)nn2C)c1=N [Example 10, 5-[3-(Dimethylamino)propyl]-4,5-dihydro-4-imino-1-methyl-3-(1-methyl-5-nitroimidazol-2-yl)-1H-pyrazolo[3,4-d]pyrimidine] | – | – | – | – | – | 100% | 80% | 100% | active both in vitro and in vivo against Trichomonas vaginalis | active both in vitro and in vivo against Trichomonas vaginalis | – | – | – | – | – | – | – | – | –
6 | Cc1nc2c(c(-c3ncc([N+](=O)[O-])n3C)nn2C)c(=O)[nH]1 [Example 13, 1,5-Dihydro-1,6-dimethyl-3-(1-methyl-5-nitroimidazol-2-yl)-4H-pyrazolo[3,4-d]pyrimidin-4-one] | – | – | active in vivo against Salmonella typhimurium in chicks | – | – | 10% | 50% | 50% | – | – | 20% | 20% | 60% | – | – | – | – | – | –
